Assay results reported in ChEMBL document CHEMBL3639140, “Naphthyridine derivatives as inhibitors of hypoxia inducible factor (HIF) hydroxylase” (2014).

Biological target: Egl nine homolog 1 (Homo sapiens, UniProt Q9GZT9)
Assay: For example, a HIF peptide for use in the HIF-PH assay is [methoxycoumarin]-[…]-amide. HIF-PH, e.g., HIF-PH2 (EGLN1), can be expressed in, e.g., insect Hi5 cells, and partially purified, e.g., through a SP ion exchange chromatography column.
Type: cell-based, BTI-TN-5B1-4

Egl nine homolog 1, sequence (Q9GZT9 whole entry): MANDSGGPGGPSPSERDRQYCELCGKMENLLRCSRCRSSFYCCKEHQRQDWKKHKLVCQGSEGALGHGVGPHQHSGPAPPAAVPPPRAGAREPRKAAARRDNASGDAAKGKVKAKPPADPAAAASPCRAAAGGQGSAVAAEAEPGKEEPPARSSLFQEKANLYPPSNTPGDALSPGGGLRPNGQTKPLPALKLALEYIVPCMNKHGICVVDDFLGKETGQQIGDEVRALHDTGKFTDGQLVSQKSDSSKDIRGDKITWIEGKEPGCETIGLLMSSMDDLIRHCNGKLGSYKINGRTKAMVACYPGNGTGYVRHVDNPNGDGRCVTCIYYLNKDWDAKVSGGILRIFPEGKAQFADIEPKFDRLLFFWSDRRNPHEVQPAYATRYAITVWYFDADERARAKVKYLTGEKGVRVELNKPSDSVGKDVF

`O=C(NCc1ccncc1)c1ncc2c(=O)n(Cc3ccccc3)ccc2c1O` was tested, and the IC50 was 190 nM.
